Experimental data: publication PMC6704710, “Preclinical evaluation of 3D185, a novel potent inhibitor of FGFR1/2/3 and CSF-1R, in FGFR-dependent and macrophage-dominant cancer models” (Journal of Experimental & Clinical Cancer Research : CR, 2019)

Tests used:
Assay in all cases: Eurofins kinase panel
Assay type in all cases: biochemical
Details in all cases: read-out: Inhibition rate (%)
TTBK1(h) = target: T1, TTBK1(h) (Homo sapiens, UniProt Q5TCY1)
T1 construct: purchased Eurofins (KinaseProfiler)
T1 sequence (Q5TCY1 whole entry): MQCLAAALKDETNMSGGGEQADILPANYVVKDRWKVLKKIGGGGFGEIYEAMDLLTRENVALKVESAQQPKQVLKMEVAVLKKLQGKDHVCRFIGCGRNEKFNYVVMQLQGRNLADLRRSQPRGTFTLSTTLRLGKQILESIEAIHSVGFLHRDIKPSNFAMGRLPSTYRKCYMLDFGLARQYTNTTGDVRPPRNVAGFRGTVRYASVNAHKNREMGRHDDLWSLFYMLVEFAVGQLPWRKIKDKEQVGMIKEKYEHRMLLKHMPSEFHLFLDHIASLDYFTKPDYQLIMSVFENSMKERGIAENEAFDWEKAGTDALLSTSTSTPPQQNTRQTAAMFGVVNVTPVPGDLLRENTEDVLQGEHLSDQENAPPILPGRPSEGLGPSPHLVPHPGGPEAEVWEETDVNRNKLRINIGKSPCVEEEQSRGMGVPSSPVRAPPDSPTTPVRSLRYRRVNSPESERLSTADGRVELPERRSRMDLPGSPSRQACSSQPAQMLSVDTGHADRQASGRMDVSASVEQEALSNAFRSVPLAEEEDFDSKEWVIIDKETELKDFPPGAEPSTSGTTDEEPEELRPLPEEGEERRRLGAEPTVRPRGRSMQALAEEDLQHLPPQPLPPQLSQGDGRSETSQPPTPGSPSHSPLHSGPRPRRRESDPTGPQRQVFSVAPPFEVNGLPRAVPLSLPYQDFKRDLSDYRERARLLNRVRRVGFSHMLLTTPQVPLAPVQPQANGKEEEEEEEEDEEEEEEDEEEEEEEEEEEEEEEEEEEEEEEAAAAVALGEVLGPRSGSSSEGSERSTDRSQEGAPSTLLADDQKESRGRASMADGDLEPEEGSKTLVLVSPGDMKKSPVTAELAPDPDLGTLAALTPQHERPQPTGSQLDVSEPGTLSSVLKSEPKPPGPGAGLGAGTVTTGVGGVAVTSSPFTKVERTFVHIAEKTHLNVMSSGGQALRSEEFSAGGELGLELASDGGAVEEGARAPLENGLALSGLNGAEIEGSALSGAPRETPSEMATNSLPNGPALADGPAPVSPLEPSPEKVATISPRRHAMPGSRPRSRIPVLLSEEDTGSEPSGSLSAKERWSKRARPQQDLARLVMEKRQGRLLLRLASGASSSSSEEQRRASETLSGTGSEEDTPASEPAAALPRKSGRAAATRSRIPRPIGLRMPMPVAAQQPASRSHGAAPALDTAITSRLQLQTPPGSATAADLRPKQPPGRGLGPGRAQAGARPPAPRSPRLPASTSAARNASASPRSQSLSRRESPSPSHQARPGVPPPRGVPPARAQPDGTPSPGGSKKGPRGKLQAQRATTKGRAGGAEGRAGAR

PI3KC2γ(h) = target: T2, PI3KC2γ(h) (Homo sapiens, UniProt O75747)
T2 construct: purchased Eurofins (KinaseProfiler)
T2 sequence (O75747 1-1486): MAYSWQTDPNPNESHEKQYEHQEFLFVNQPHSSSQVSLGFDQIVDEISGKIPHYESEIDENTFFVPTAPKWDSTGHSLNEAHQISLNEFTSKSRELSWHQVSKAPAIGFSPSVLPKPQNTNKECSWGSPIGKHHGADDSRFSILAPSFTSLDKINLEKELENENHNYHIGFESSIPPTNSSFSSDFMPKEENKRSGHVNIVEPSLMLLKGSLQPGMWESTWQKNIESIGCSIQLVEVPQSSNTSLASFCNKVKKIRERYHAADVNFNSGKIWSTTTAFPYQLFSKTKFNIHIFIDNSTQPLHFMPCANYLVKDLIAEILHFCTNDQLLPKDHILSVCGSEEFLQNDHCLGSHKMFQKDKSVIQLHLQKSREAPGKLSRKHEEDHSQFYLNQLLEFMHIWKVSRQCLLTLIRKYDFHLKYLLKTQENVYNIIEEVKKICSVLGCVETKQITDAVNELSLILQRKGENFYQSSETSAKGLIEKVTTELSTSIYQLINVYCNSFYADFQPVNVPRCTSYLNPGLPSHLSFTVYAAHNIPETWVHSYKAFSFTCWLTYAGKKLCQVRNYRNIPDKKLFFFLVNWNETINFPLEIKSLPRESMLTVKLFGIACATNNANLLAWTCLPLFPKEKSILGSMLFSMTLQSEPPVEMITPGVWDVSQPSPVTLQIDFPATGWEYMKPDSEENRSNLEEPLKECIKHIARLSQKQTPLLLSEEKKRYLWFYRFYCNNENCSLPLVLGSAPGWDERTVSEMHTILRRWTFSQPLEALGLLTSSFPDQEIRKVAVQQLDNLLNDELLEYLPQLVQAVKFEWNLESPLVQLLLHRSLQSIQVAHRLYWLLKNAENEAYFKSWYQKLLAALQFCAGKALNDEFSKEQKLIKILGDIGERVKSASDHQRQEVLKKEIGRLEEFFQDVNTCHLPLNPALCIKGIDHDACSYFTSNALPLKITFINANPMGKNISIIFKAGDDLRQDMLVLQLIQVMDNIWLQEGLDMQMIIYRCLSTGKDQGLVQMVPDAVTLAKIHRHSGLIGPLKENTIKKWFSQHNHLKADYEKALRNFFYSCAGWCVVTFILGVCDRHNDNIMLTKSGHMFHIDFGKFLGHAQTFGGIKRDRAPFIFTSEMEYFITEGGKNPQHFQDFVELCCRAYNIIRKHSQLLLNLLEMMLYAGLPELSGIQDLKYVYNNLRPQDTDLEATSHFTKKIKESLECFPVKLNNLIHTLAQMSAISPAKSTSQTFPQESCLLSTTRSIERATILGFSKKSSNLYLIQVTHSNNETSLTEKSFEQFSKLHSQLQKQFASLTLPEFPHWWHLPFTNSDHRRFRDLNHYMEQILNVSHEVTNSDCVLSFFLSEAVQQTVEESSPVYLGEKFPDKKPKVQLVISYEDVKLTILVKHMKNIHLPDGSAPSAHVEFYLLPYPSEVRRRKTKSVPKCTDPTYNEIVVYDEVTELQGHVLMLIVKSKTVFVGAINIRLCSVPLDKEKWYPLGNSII

CK2α1(h) = target: T3, CK2α1(h) (Homo sapiens, UniProt P68400)
T3 construct: purchased Eurofins (KinaseProfiler)
T3 sequence (P68400 whole entry): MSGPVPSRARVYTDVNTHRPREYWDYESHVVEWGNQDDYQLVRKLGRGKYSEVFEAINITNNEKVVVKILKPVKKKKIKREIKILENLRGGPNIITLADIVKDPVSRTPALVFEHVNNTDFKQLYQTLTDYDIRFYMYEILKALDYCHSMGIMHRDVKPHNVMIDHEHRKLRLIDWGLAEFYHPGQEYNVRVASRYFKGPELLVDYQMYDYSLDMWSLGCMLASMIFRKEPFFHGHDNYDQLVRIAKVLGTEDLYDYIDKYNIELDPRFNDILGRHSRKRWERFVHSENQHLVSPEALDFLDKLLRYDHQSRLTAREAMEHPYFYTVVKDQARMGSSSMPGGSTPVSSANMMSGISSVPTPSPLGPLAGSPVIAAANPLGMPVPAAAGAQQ

GRK1(h) = target: T4, GRK1(h) (Homo sapiens, UniProt Q15835)
T4 construct: purchased Eurofins (KinaseProfiler)
T4 sequence (Q15835 1-563): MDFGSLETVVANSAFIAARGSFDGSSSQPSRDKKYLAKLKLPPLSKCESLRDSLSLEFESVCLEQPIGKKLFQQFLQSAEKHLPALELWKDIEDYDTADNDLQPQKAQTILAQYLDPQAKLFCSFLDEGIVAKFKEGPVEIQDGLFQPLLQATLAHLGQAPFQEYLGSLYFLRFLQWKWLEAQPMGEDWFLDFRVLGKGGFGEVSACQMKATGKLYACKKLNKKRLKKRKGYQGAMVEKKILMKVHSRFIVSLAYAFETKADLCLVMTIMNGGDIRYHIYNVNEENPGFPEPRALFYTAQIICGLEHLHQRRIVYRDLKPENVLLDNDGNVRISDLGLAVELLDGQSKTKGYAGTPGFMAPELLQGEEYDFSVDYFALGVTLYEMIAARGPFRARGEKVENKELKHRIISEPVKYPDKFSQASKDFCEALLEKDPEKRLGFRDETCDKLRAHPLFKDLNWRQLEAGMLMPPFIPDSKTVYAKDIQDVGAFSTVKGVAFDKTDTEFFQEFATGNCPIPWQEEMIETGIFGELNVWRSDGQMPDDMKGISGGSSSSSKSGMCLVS

## COc1cc(OC)c(Cl)c(-c2ccc3c(NC(=O)c4ccc(N5CCNC(C)(C)C5)cc4)n[nH]c3n2)c1Cl [3D185]
TTBK1(h); 10 nM
  inhibition at 0.01 µM: 2%
TTBK1(h); 100 nM
  inhibition at 0.1 µM: -7%
TTBK1(h); 1000 nM
  inhibition at 1 µM: -6%
PI3KC2γ(h); 10 nM
  inhibition at 0.01 µM: -4%
PI3KC2γ(h); 100 nM
  inhibition at 0.1 µM: -4%
PI3KC2γ(h); 1000 nM
  inhibition at 1 µM: 1%
CK2α1(h); 10 nM
  inhibition at 0.01 µM: 23%
CK2α1(h); 100 nM
  inhibition at 0.1 µM: 21%
CK2α1(h); 1000 nM
  inhibition at 1 µM: 10%
GRK1(h); 10 nM
  inhibition at 0.01 µM: -2%
GRK1(h); 100 nM
  inhibition at 0.1 µM: -5%
GRK1(h); 1000 nM
  inhibition at 1 µM: -7%
